In the OPERA property sets (Mansouri et al. 2018):

Conditions: not given
With `CO[C@@H]1[C@H](OC(=O)/C=C/C=C/C=C/C=C/C(=O)O)CC[C@]2(CO2)[C@H]1[C@@]1(C)O[C@@H]1CC=C(C)C` the melting point was 194 °C.
For `Nc1cccc(S(=O)(=O)c2cccc(N)c2)c1`, the melting point was 172 °C and the ready biodegradability was “not readily biodegradable”.
For `CCCCCCCCCCCCCCCO`, the log10 vapour pressure (mmHg) was -4.41, the melting point was 45.5 °C and the ready biodegradability was “readily biodegradable”.
`NC[C@H](O)[C@@H](O)[C@@H](O)[C@H](O)CO` showed a melting point of 127 °C.
With `Clc1cccc(C(Cl)(Cl)Cl)c1` the boiling point was 255 °C and the melting point was 0.6 °C.
`CCCCCCCCCCCCCCCc1ccccc1` gave a boiling point of 373 °C, a log10 vapour pressure (mmHg) of -5.14 and a melting point of 22 °C.
`Clc1ccc(Oc2ccccc2Cl)c(Cl)c1` showed a log10 vapour pressure (mmHg) of -3.73.
With `CC(C)C(=O)OC(=O)C(C)C` the boiling point was 183 °C and the melting point was -53.5 °C.
`CC(C)=CCCC(C)CC(=O)O` (stereo unspecified) gave a melting point of 257 °C.
For `CC1=CCC(O)(C(C)C)CC1` (stereo unspecified), the boiling point was 209 °C.
`CCCCCC(=O)OCC(COC(=O)CCCCC)OC(=O)CCCCC` showed a melting point of -60 °C.
`O=C(Oc1ccccc1)Oc1ccccc1` gave a boiling point of 306 °C, a log10 vapour pressure (mmHg) of -3.82 and a melting point of 83 °C.
`O=C(O)[C@@H]1CCCN1C(=O)OCc1ccccc1` showed a melting point of 77 °C.
Work on `Cc1ccc(C)o1` yielded a boiling point of 93.5 °C and a melting point of -62.8 °C.
For `CC1CCC(O)CC1C` (stereo unspecified), the boiling point was 189 °C.
In the case of `O=CNC(O)C(Cl)(Cl)Cl` (stereo unspecified), the melting point was 120 °C.
With `COc1cc(Cc2cnc(N)nc2N)cc(OC)c1OC` the melting point was 201 °C.
Work on `CCCC(=O)Nc1c(I)cc(I)c(CC(CC)C(=O)[O-])c1I.[Na+]` (stereo unspecified) yielded a melting point of 209 °C.
For `O=c1cnn([C@@H]2O[C@H](CO)[C@@H](O)[C@H]2O)c(=O)[nH]1`, the melting point was 158 °C.
For `O=C(c1ccccc1)c1ccc(C(F)(F)F)cc1`, the melting point was 115 °C.
With `S=C=Nc1cccc2ccccc12` the melting point was 58 °C.
`CCCC[N+](=O)[O-]` gave a boiling point of 153 °C, a log10 vapour pressure (mmHg) of 0.579 and a melting point of -81.3 °C.
Work on `Oc1c(Cl)cc(Cl)c2cccnc12` yielded a melting point of 180 °C.
With `CC(C)c1ccc(NC(=O)N(C)C)cc1` the log10 vapour pressure (mmHg) was -7.61 and the melting point was 158 °C.
For `CC(=O)CC(=O)O`, the melting point was 36.5 °C.
For `CNC(=S)S`, the ready biodegradability was “not readily biodegradable”.
Compound `CON(C)C(=O)Nc1ccc(Cl)cc1` has a log10 Koc (L/kg) of 2.1, a log10 vapour pressure (mmHg) of -3.82 and a melting point of 81.5 °C.
For `FC(Cl)(Br)Br`, the boiling point was 80.3 °C.
For `O=Cc1ccccc1O[C@@H]1O[C@H](CO)[C@@H](O)[C@H](O)[C@H]1O`, the melting point was 175 °C.
With `O=Cc1ccc([N+](=O)[O-])cc1` the melting point was 107 °C.
Work on `COc1ccc(Cn2cncn2)cc1` yielded a melting point of 41.5 °C.
`ClC1OCCOC1Cl` (stereo unspecified) gave a melting point of 30 °C.
Work on `CC(=O)OCC(=O)[C@@]1(O)[C@@H](C)C[C@H]2[C@@H]3CCC4=CC(=O)C=C[C@]4(C)[C@@]3(F)[C@@H](O)C[C@@]21C` yielded a melting point of 248 °C.
In the case of `O=C(Nc1ccc(Cl)cc1)Nc1ccc(Cl)c(C(F)(F)F)c1`, the melting point was 214 °C.
For `COc1ccc(CC#N)cc1`, the boiling point was 286 °C.
In the case of `CN(C)CCCCN(C)C`, the boiling point was 168 °C.
`COP(=S)(OC)Oc1cc(Cl)c(I)cc1Cl` gave a log10 vapour pressure (mmHg) of -6.08 and a melting point of 72.5 °C.
In the case of `CCC(C)N` (stereo unspecified), the boiling point was 62.8 °C, the log10 vapour pressure (mmHg) was 2.25 and the melting point was -104 °C. The ready biodegradability was “readily biodegradable”.
With `C1COCCOCCOCCO1` the melting point was 16 °C.
`CC(C)(C)c1nnc(NS(=O)(=O)c2ccc(N)cc2)s1` showed a melting point of 222 °C.
For `CP(=O)(O)CCC(N)C(=O)O` (stereo unspecified), the log10 Koc (L/kg) was 2.63 and the ready biodegradability was “readily biodegradable”.
`O=Cc1ccccc1Br` showed a boiling point of 230 °C and a melting point of 21.5 °C.
For `Clc1cccc(Oc2ccc(Cl)cc2Cl)c1`, the log10 vapour pressure (mmHg) was -3.74.
`O=C(Cc1ccccc1)OCCc1ccccc1` showed a melting point of 26.5 °C.
Compound `c1ccc(N=Nc2ccccc2)cc1` has a boiling point of 293 °C, a log10 Koc (L/kg) of 3.3 and a log10 vapour pressure (mmHg) of -3.44. The melting point was 68.2 °C and the ready biodegradability was “not readily biodegradable”.
`Nc1ccc(S(=O)(=O)Nc2ccccn2)cc1` gave a melting point of 192 °C.
In the case of `Clc1ccc(C(c2ccccc2Cl)C(Cl)(Cl)Cl)cc1` (stereo unspecified), the log10 Koa was 9.45 and the log10 vapour pressure (mmHg) was -5.87.
`Oc1ccc(S)cc1` showed a melting point of 29.5 °C.
Compound `Cc1cc(C)ncn1` has a boiling point of 159 °C and a melting point of 25 °C.
Work on `Clc1cc(Cl)c2c(oc3c(Cl)cccc32)c1Cl` yielded a melting point of 177 °C.
Compound `C1CC[C@H]2CCC[C@@H]2C1` (racemic) has a boiling point of 167 °C and a melting point of -53 °C.
`COC(=O)c1c(Cl)nn(C)c1S(=O)(=O)NC(=O)Nc1nc(OC)cc(OC)n1` gave a melting point of 176 °C.
Compound `C=CCCC(C)O` (stereo unspecified) has a boiling point of 139 °C.
For `CC1(C)[C@@H]2CC[C@@](C)(C2)[C@@H]1O`, the melting point was 45.8 °C.
`CNCCCC12CCC(c3ccccc31)c1ccccc12` showed a melting point of 93 °C.
`CCCCCCCCCCCC(=O)Oc1ccccc1` gave a melting point of 24.5 °C.
For `O=C(O)CCCCCCCCC(=O)O`, the log10 vapour pressure (mmHg) was -7.26, the melting point was 131 °C and the ready biodegradability was “readily biodegradable”.
`CCCCCC(O)CCCCC` showed a boiling point of 228 °C and a melting point of 25 °C.
`C1CN2CCN1CC2` gave a boiling point of 174 °C, a log10 vapour pressure (mmHg) of -0.13 and a melting point of 159 °C. For the same compound, the ready biodegradability was “not readily biodegradable”.
In the case of `CCCCCCCCCCCCCCCCCC(=O)OCCCCC`, the melting point was 30 °C.
For `CC(=O)c1ccc(I)cc1`, the melting point was 86 °C.
For `COc1c(O)c(Cl)c(Cl)c(Cl)c1Cl`, the log10 Koc (L/kg) was 2.85 and the log10 vapour pressure (mmHg) was -4.08.
With `CC(C)c1cccc(C(C)C)c1O` the boiling point was 256 °C, the melting point was 18 °C and the ready biodegradability was “not readily biodegradable”.
Compound `ClC(Cl)=C(Cl)C(Cl)(Cl)Cl` has a boiling point of 210 °C, a log10 vapour pressure (mmHg) of -0.613 and a melting point of -72.9 °C.
In the case of `COP(=S)(OC)SCn1nnc2ccccc2c1=O`, the log10 Koc (L/kg) was 2.28, the log10 vapour pressure (mmHg) was -5.8 and the melting point was 73 °C. For the same compound, the ready biodegradability was “readily biodegradable”.
For `C=C1CCC(C)CC1`, the boiling point was 122 °C.
In the case of `CC(C)CC=NO`, the boiling point was 161 °C and the melting point was 48.5 °C.
For `CCCCCCCC/C=C\CCCCCCCCCCCC(N)=O`, the melting point was 77.5 °C and the ready biodegradability was “readily biodegradable”.
`Cc1coc(C)n1` showed a boiling point of 108 °C.
For `CC(=O)[C@@]1(O)CC[C@H]2[C@@H]3CC[C@H]4C[C@@H](O)CC[C@]4(C)[C@H]3CC[C@@]21C`, the melting point was 265 °C.
In the case of `Nc1ccc(S(=O)(=O)c2ccc(NCC(=O)O)cc2)cc1`, the melting point was 194 °C.
Compound `O=[N+]([O-])c1c(Cl)cccc1Cl` has a melting point of 72.5 °C.
In the case of `CC(C)=CCC/C(C)=C/CO`, the boiling point was 228 °C, the log10 vapour pressure (mmHg) was -1.52 and the ready biodegradability was “readily biodegradable”.
`N#CCC(=O)c1ccccc1` gave a melting point of 80.5 °C.
Compound `ClC1(Cl)CCCCC1` has a boiling point of 171 °C and a melting point of -47 °C.
`COc1cc(C(=O)NCc2ccc(OCCN(C)C)cc2)cc(OC)c1OC` showed a melting point of 189 °C.
`CCCS(=O)(=O)O` gave a melting point of 7.5 °C.
For `CCC(=O)C=C(C)CC`, the boiling point was 166 °C.
Compound `CC(C)=CCCC=C(C)C` has a boiling point of 166 °C and a melting point of -74.4 °C.
For `N[C@@H](CC(=O)O)C(=O)O`, the ready biodegradability was “readily biodegradable”.
Compound `CC#CC#CC` has a boiling point of 130 °C and a melting point of 67.8 °C.
`c1ccc2c(c1)cc1ccc3c4ccccc4cc4ccc2c1c43` gave a melting point of 317 °C.
In the case of `CNCCOC(=O)/C=C1/CC[C@H]2[C@@H]([C@@H](O)C[C@@H]3[C@]2(C)CCC[C@]3(C)C(=O)OC)[C@H]1C`, the melting point was 115 °C.
For `C=CCCCC(C)C`, the boiling point was 113 °C and the log10 vapour pressure (mmHg) was 1.4.
For `CC1(C)COC(C)(C)C1`, the boiling point was 121 °C.
`Clc1cccc2cccnc12` gave a boiling point of 288 °C and a melting point of -20 °C.
Work on `Cc1nccc2c1[nH]c1ccccc12` yielded a melting point of 236 °C.
Work on `COC(=O)c1cccc(O)c1` yielded a boiling point of 281 °C and a melting point of 73 °C.
In the case of `CCCCN(CCO)CCCC`, the boiling point was 229 °C, the melting point was -75 °C and the ready biodegradability was “not readily biodegradable”.
With `Cc1ccc2ccc3ccc(C)nc3c2n1` the melting point was 160 °C.
Compound `C/C=C(\C)c1ccccc1` has a melting point of -23.5 °C.
`CCC(CC)=NO` gave a boiling point of 168 °C.
Work on `CCOC(=O)C(OCC)OCC` yielded a boiling point of 199 °C.
With `Oc1cccc(F)c1` the boiling point was 178 °C and the melting point was 13.7 °C.
In the case of `CCCCCCNC(=O)n1cc(F)c(=O)[nH]c1=O`, the melting point was 110 °C.
`C=CC(CC)CC` gave a boiling point of 84.1 °C, a log10 vapour pressure (mmHg) of 1.91 and a melting point of -128 °C.
`CCC#CCC` gave a boiling point of 81 °C and a melting point of -103 °C.
In the case of `CC(C)COCC(C)O` (stereo unspecified), the boiling point was 165 °C and the log10 vapour pressure (mmHg) was 0.114.
For `O=[N+]([O-])c1cc(Cl)ccc1O`, the melting point was 88.5 °C and the ready biodegradability was “not readily biodegradable”.
Compound `NCCc1c[nH]c2ccc(O)cc12` has a melting point of 168 °C.

Same assay, conditions: fish
For `CON(C)C(=O)Nc1ccc(Cl)cc1`, the log10 BCF was 1.15.
Work on `Brc1ccc(Oc2ccc(Br)c(Br)c2)c(Br)c1` yielded a log10 BCF of 6.05.
Work on `COP(=S)(OC)Oc1cc(Cl)c(I)cc1Cl` yielded a log10 BCF of 3.62 and a log10 biotransformation half-life (days) of 0.86.
In the case of `Clc1ccc(C(c2ccccc2Cl)C(Cl)(Cl)Cl)cc1` (stereo unspecified), the log10 biotransformation half-life (days) was 1.71.
`COc1c(O)c(Cl)c(Cl)c(Cl)c1Cl` gave a log10 BCF of 3.08.
